Measured values published in ChEMBL document CHEMBL4507281, “Data for DCP probe BI-4394” (2021).

Tests used:
Conditions in all cases: Compound concentration 10.0 uM
[1] = target: AMP-activated protein kinase (AMPK) alpha-1/beta-1/gamma-1 (Homo sapiens) (UniProt P54619+Q9Y478+Q13131)
[2] = target: Hepatocyte growth factor receptor (Homo sapiens) (UniProt P08581)
[3] = target: T1, Interleukin-1 receptor-associated kinase 4 (Homo sapiens) (UniProt Q9NWZ3)
T1 sequence (whole entry): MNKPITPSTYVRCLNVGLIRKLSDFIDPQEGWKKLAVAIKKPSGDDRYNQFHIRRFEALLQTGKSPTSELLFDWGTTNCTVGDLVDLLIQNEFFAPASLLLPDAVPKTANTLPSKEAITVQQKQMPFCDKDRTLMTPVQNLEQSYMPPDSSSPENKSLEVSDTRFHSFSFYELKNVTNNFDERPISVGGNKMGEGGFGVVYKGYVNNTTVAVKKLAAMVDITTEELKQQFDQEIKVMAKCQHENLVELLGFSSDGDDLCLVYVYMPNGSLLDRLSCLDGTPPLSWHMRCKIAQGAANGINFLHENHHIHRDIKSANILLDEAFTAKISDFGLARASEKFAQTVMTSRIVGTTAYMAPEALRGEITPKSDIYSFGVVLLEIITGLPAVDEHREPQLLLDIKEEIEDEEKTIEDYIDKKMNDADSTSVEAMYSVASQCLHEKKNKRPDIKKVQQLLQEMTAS

[4] = target: T2, Tyrosine-protein kinase ZAP-70 (Homo sapiens) (UniProt P43403)
T2 sequence (whole entry): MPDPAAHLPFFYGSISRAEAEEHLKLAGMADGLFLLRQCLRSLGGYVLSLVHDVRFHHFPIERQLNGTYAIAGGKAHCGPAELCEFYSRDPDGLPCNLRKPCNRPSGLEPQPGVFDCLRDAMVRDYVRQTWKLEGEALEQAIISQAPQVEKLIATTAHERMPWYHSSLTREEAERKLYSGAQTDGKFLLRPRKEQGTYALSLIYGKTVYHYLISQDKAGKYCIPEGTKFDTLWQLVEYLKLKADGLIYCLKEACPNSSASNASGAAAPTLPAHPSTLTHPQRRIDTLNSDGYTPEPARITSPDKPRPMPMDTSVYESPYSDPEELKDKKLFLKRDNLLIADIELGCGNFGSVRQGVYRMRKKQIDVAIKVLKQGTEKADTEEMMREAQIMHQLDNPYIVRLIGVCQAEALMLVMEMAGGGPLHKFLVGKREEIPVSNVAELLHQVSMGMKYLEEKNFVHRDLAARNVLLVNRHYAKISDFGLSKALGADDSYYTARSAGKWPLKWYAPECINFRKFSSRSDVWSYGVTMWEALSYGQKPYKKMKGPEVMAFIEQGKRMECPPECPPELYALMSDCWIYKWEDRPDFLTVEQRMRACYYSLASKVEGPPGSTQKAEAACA

[5] = target: Rho-associated protein kinase 2 (Homo sapiens) (UniProt O75116)
[6] = target: T3, Phosphorylase b kinase regulatory subunit alpha, liver isoform (Homo sapiens) (UniProt P46019)
T3 sequence (whole entry): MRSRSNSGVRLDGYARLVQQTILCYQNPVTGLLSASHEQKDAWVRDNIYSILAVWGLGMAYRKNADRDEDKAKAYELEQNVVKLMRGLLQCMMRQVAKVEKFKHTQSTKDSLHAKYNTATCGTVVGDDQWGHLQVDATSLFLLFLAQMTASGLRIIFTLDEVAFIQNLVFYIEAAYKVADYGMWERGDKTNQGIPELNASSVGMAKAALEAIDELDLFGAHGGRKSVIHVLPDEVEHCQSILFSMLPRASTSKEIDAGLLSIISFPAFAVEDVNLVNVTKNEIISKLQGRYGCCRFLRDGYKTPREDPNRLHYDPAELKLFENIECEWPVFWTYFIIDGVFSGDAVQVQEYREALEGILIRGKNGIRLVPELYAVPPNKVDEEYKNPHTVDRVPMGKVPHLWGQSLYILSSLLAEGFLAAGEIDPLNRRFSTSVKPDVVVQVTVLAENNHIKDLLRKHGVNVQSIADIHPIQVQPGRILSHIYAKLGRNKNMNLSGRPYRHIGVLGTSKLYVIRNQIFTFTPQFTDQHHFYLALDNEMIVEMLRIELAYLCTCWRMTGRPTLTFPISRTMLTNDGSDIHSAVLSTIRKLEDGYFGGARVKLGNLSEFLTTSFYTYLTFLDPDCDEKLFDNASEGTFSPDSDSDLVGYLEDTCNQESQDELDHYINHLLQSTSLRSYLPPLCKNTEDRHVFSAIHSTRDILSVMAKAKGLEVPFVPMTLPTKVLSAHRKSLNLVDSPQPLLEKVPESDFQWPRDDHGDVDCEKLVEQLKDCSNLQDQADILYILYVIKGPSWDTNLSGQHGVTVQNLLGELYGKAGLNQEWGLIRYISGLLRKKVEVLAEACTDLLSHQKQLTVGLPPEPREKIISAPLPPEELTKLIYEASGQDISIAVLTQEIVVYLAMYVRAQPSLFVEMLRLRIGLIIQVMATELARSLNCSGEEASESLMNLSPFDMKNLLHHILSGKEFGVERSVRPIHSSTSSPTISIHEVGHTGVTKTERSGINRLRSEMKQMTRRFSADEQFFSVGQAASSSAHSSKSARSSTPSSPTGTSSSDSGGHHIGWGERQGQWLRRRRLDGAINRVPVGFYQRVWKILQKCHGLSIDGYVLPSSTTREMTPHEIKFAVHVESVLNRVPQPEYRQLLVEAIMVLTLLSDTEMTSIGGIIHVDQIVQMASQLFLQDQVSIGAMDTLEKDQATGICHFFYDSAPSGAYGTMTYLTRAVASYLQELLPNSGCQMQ

[7] = target: Ribosomal protein S6 kinase alpha-3 (Homo sapiens) (UniProt P51812)
Sequence of Ribosomal protein S6 kinase alpha-3 (Homo sapiens) (P51812 whole entry): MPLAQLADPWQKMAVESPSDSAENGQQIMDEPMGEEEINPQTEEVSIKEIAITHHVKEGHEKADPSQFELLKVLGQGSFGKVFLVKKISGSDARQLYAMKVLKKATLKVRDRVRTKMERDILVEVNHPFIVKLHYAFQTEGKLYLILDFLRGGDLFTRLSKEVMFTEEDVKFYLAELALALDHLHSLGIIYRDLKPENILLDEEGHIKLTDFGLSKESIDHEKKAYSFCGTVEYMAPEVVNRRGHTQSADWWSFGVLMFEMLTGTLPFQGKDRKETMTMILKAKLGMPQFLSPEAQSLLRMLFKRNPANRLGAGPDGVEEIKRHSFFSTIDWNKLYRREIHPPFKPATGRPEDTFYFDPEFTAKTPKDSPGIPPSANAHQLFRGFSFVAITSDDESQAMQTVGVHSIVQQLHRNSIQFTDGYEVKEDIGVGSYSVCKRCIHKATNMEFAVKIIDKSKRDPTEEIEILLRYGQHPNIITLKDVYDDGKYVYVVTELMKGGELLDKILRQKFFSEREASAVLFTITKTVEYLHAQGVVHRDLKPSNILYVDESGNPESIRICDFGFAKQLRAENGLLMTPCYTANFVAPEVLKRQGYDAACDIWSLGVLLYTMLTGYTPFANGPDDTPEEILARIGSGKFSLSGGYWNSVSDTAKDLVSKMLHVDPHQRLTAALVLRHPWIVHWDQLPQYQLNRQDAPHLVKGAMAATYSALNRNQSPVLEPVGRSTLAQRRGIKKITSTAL

Sequence of Rho-associated protein kinase 2 (Homo sapiens) (O75116 whole entry, looked up, canonical isoform): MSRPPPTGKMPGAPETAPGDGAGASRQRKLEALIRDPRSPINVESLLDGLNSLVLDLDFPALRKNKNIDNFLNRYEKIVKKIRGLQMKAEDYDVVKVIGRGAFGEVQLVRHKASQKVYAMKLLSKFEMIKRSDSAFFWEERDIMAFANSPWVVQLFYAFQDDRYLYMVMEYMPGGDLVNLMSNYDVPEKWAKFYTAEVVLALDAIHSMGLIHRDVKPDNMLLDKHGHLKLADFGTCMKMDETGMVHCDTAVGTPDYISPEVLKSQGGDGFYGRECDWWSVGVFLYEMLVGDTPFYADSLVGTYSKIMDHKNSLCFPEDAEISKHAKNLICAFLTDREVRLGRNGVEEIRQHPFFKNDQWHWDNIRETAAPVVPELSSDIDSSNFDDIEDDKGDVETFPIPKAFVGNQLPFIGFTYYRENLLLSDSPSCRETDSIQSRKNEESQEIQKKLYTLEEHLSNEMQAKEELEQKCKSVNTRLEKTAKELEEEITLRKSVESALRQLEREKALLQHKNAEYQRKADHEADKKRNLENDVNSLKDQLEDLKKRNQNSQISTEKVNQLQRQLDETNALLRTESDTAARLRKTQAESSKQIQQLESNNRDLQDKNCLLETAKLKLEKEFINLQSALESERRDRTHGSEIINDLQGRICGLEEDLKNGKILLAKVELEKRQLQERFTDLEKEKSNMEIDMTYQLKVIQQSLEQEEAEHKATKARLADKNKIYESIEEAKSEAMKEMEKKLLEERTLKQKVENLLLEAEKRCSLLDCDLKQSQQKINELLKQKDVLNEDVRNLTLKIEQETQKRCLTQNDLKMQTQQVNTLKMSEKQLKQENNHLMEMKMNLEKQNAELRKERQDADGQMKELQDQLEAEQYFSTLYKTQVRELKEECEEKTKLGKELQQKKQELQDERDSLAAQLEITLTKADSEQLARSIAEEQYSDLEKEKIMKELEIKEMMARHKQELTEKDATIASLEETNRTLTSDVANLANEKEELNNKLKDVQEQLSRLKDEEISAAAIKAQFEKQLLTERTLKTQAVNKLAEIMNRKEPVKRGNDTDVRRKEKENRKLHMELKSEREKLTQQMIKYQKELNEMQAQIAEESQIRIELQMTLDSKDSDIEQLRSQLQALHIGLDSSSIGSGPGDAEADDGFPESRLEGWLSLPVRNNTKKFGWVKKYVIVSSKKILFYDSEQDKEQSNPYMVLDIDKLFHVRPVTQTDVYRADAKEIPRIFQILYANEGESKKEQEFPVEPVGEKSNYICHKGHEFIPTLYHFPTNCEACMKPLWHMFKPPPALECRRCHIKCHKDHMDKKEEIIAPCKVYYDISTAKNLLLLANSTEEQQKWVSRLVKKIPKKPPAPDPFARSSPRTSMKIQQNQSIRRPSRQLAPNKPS
Sequence of Hepatocyte growth factor receptor (Homo sapiens) (P08581 whole entry): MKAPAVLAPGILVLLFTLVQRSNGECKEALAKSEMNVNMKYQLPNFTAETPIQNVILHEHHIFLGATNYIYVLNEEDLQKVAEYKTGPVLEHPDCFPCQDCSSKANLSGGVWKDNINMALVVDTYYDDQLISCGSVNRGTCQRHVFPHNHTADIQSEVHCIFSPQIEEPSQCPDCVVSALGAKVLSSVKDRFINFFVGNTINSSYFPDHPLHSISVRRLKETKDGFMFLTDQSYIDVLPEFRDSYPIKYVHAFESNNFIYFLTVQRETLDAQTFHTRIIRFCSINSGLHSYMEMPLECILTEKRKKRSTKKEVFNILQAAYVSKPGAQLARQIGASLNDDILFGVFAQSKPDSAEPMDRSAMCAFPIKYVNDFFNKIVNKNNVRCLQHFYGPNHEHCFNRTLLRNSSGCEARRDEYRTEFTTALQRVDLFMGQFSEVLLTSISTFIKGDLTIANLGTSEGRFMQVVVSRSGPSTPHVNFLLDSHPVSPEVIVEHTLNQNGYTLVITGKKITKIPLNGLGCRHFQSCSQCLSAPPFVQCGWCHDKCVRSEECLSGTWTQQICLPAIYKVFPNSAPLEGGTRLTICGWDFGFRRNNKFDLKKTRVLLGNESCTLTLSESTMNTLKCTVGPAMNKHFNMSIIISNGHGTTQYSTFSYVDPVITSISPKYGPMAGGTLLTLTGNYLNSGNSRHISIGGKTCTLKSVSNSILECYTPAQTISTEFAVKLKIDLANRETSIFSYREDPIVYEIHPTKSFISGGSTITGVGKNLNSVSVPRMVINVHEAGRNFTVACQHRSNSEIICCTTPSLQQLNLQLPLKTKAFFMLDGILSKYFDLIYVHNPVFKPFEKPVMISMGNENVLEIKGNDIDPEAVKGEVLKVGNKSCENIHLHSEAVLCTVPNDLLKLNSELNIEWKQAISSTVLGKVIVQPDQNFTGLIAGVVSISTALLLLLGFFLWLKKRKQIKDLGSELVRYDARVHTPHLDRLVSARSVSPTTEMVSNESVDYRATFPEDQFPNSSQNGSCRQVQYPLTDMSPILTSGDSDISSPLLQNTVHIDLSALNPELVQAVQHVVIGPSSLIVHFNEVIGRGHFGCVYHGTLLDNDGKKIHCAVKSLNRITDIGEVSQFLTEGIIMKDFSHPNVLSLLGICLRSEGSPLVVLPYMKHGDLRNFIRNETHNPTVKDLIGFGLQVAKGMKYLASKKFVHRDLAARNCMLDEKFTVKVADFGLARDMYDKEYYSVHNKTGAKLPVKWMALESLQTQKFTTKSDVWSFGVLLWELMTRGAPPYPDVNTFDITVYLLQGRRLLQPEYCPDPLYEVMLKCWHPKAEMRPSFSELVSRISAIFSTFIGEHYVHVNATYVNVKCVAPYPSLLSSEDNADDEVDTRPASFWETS
Sequence of AMP-activated protein kinase (AMPK) alpha-1/beta-1/gamma-1 (Homo sapiens) (P54619 whole entry): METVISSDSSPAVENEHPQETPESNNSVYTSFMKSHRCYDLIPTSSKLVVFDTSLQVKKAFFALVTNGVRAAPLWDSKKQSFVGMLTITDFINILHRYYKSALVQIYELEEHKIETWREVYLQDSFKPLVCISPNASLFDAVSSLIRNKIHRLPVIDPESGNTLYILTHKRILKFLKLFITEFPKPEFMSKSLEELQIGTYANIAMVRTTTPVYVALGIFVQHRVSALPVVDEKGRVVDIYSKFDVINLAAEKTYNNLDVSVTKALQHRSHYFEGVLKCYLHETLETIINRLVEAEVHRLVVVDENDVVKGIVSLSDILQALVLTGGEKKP
Sequence of AMP-activated protein kinase (AMPK) alpha-1/beta-1/gamma-1 (Homo sapiens) (Q13131 whole entry partner): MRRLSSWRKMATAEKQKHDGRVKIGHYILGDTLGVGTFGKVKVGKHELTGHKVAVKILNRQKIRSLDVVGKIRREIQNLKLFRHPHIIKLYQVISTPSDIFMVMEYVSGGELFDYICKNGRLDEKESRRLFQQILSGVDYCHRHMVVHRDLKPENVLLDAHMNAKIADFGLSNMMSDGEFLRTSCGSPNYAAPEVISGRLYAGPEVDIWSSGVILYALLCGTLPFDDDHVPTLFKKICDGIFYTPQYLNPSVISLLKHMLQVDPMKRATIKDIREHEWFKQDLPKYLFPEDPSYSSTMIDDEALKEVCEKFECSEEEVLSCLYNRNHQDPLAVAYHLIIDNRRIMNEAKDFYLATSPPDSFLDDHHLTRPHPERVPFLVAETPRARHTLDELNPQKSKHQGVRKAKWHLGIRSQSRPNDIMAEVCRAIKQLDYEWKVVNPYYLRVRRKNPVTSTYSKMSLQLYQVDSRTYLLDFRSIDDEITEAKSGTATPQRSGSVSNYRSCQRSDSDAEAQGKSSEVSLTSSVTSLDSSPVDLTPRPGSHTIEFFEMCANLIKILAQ
Sequence of AMP-activated protein kinase (AMPK) alpha-1/beta-1/gamma-1 (Homo sapiens) (Q9Y478 2-270 partner limits assumed): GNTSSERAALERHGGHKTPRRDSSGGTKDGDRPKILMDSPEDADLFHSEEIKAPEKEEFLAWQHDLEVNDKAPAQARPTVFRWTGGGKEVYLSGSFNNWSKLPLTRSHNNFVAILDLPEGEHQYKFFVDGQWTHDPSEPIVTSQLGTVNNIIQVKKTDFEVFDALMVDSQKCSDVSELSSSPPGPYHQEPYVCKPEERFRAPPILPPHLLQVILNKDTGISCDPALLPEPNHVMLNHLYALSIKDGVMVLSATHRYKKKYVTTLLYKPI

Q: With `CCOC(=O)c1cc2cc(-c3cc(C(=O)NCc4ccc(C(=O)O)cc4)nn3C)ccc2[nH]1` [BI 4394] as the compound, how does the residual activity [1] read?
A: The residual activity was 8%.

Q: What about the residual activity [2] of the same compound?
A: Its residual activity is 43%.

Q: What about the residual activity [3] of the same compound?
A: Its residual activity is 121%.

Q: What about the residual activity [4] of the same compound?
A: Its residual activity is 100%.

Q: What about the residual activity [5] of the same compound?
A: The residual activity was 56%.

Q: And the residual activity [6]?
A: Its residual activity is 82%.

Q: What about the residual activity [7] of the same compound?
A: Its residual activity is 5%.
